For 16 molecules, IC50 results are on record in patent US20250084087A1, “BICYCLIC HETEROCYCLES AS MRGPRX2 ANTAGONISTS” (Incyte Corporation, priority 2023, published 2025).

Assay [1] has as its target T1, MRGPRX2 (Homo sapiens, UniProt Q96LB1).
T1 sequence (Q96LB1 1-330): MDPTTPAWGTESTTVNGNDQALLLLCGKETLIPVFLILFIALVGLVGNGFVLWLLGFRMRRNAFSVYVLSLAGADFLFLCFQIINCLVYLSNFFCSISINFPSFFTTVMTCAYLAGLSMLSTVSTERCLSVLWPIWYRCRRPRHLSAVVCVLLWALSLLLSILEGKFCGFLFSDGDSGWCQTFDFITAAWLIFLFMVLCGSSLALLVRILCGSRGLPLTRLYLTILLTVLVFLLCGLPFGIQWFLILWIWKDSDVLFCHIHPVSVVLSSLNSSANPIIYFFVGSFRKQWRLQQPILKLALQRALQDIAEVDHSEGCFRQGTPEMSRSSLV
Description: MRGPRX2 β-Arrestin recruitment assay (PathHunter). It is filed as cell-based. Details: host or cells: CHO-K1 (PathHunter). The settings on record: PathHunter CHO-K1 MRGPRX2 β-Arrestin cell line; agonist Cortistatin 14 0.25 μM. The source says:
Example C: MRGPRX2 P-Arrestin Assay
This assay measures compound inhibition of P-Arrestin recruitment, which is part of the G protein-independent pathway that results from the ligand-activated GPCR phosphorylation by specific GPCR kinases. The PathHunter CHO-K1 MRPGRX2 B-Arrestin Cell line stably expressing ProLink tagged MRGPRX2 and Enzyme Acceptor Tagged B-Arrestin was purchased from Eurofins DiscoverX, (Fremont, CA).
The cells were maintained in culture medium from the Europhins DiscoverX Cell Culture Kit-107 which includes FBS, hygromycin B and G418. For the assay, the cells were harvested and were resuspended with Cell Plating Reagent 2 (Eurofins DiscoverX). Cells were added 10000 cells in 25 μL/well to a 384-well black cell culture plate (Greiner VWR, Radnor, PA) which contained 125 nL/well of compound at a selected serially diluted concentration range or DMSO. The plate was incubated at 37° C. with 5% CO2 for 1 h. 2 μL/well of agonist Cortistatin 14 was diluted in Protein Dilution Buffer, (Eurofins DiscoverX) for a final concentration of 0.25 μM, was added and the plate was incubated at 37° C. with 5% CO2 for 90 min. 14 μL/well of Detection Reagent Mix (PathHunter Detection Kit, Eurofins DiscoverX) was added to the plates and further incubated for 1 h in the dark. Plates were read on the PHERAstar microplate reader (BMG Labtech Cary, NC) measuring luminescence 0.1 to 1 second per well. Data was normalized using DMSO only wells and wells with high concentration of reference antagonist as controls. Compound IC50 curves were globally fitted with 3- or 4-parameter Hill equation in a Genedata Screener (Genedata Basel, Switzerland).
Background: Activated receptors often draw arrestin, which recruitment assays turn into a signal.

The target in assay [2] is T1, MRGPRX2. The assay can be described thus: MRGPRX2 IP1 HTRF assay. The class given is cell-based. Details: host or cells: CHO-K1. The settings on record: CHO-K1 cells stably expressing human MRGPRX2; IP1 accumulation; agonist Cortistatin 14 1 μM. An excerpt:
Example B: MRGPRX2 IP1 HTRF Assay
This assay measures compound inhibition of myo-Inositol 1 phosphate (IP1) accumulation in CHO-K1 cells. Chinese hamster ovary (CHO-K1) cells stably expressing human MRGPRX2 were purchased from GenScript (Piscataway, NJ).
For the HTRF IP1 determination, an IP-One GqKit (Perkin Elmer Cisbio, Waltham, MA), which includes all reagents and buffers in this protocol, was used. The cells were maintained in culture medium (Ham's F-12K) containing 10% (v/v) FBS, and 200 μg/mL Zeocin. For the assay, the cells were harvested and resuspended in culture medium with 2% FBS and without Zeocin, then were passed through a 40 μm filter. Cells were added at 20000 cells in a 5 μL/well to a 384-well white small volume cell culture plate (Greiner VWR, Radnor, PA) which contained 50 nL/well of test compound serially diluted at a selected concentration range in DMSO. 5 μL/well of prepared 2× Stimulation Buffer2 was then added to plates and was incubated at 37° C. with 5% CO2 for 1 h. 5 μL/well of agonist Cortistatin 14 (Bio-TechneR&D Systems, Minneapolis, MN) in 1× Stimulation Buffer2, for a 1 μM final concentration, was then added to plates and incubated at 37° C. with 5% CO2 for 1 h. 6 μL/well of 1:20 diluted Detection Reagent Mix (d2 and Cryptate) was added to the plates and incubated for 1 h in the dark. Plates were read on the PHERAstar microplate reader (BMG Labtech Cary, NC) to determine the HTRF ratio of the acceptor and donor emission signals. The IP1 concentrations were calculated from a standard curve following the IP-One GQ kit instructions. Wells with DMSO only and wells with high concentration of reference antagonist were used as controls for normalization. Compound IC50 curves were globally fitted with 3- or 4-parameter Hill equation in a Genedata Screener (Genedata Basel, Switzerland).
(TR-FRET usually uses a lanthanide donor and a delayed reading to cut background.)

What is called IC50 is the midpoint of a concentration-inhibition curve.

SMILES strings stand for the structures.

As to `[2H]C([2H])([2H])C([2H])([2H])c1cc(NCC2(c3ccc(F)cc3)CN(C(=O)N[C@@H]3CC[C@@H](O)C3)C2)n2nc(C(F)(F)F)cc2n1` [Example 113, 3-(((5-(Ethyl-d5)-2-(trifluoromethyl)pyrazolo[1,5-a]pyrimidin-7-yl)amino)methyl)-3-(4-fluorophenyl)-N-((1R,3R)-3-hydroxycyclopentyl)azetidine-1-carboxamide], the IC50 on MRGPRX2 [1] and at MRGPRX2 [2] was 0.1 to 100 nM throughout.

`CC(C)(O)CNC1CCC(CNc2cc(C(F)(F)F)nc3cc(C(F)(F)F)nn23)(c2ccc(F)cc2)CC1` (centres unmarked) [Example 74, 1-((4-(((2,5-Bis(trifluoromethyl)pyrazolo[1,5-a]pyrimidin-7-yl)amino)methyl)-4-(4-fluorophenyl)cyclohexyl)amino)-2-methylpropan-2-ol]: the IC50 on MRGPRX2 [1] and on MRGPRX2 [2] was 0.1 to 100 nM in each case.

For `C[C@]1(O)C[C@H](NC(=O)N2CC(CNc3cc(C(F)(F)F)nc4cc(C(F)(F)F)nn34)(c3ccc(F)cc3)C2)C1` [Example 91, 3-(((2,5-Bis(trifluoromethyl)pyrazolo[1,5-a]pyrimidin-7-yl)amino)methyl)-3-(4-fluorophenyl)-N-((1r,3r)-3-hydroxy-3-methylcyclobutyl)azetidine-1-carboxamide], the IC50 on MRGPRX2 [1] and at MRGPRX2 [2] was 0.1 to 100 nM in each case.

`CNC(=O)N1CC(CNc2cc(C(F)(F)F)nc3cc(C(F)(F)F)nn23)(n2cc(F)cn2)C1` [Example 41, 3-(((2,5-Bis(trifluoromethyl)pyrazolo[1,5-a]pyrimidin-7-yl)amino)methyl)-3-(4-fluoro-1H-pyrazol-1-yl)-N-methylazetidine-1-carboxamide]: the half-inhibitory concentration (IC50) at MRGPRX2 [1] and on MRGPRX2 [2] was 0.1 to 100 nM in each case.

In the case of `C[C@]1(O)C[C@@H](NC(=O)N2CC(CNc3cc(C(F)(F)F)nc4cc(C(F)(F)F)nn34)(c3ccc(F)cc3)C2)C1` [Example 52, 3-(((2,5-Bis(trifluoromethyl)pyrazolo[1,5-a]pyrimidin-7-yl)amino)methyl)-3-(4-fluorophenyl)-N-((1s,3s)-3-hydroxy-3-methylcyclobutyl)azetidine-1-carboxamide], the half-inhibitory concentration (IC50) on MRGPRX2 [1] and at MRGPRX2 [2] was 0.1 to 100 nM each time.

`[2H]C([2H])([2H])NC(=O)N1CC(CNc2cccc3nc(C(F)(F)F)nn23)(c2ccc(F)cc2)C1` [Example 103, 3-(4-Fluorophenyl)-N-(methyl-d3)-3-(((2-(trifluoromethyl)-[1,2,4]triazolo[1,5-a]pyridin-5-yl)amino)methyl)azetidine-1-carboxamide]: the IC50 on MRGPRX2 [1] and at MRGPRX2 [2] was 0.1 to 100 nM each time.

On to `O=C(N[C@H]1CC[C@H](O)CC1)N1CC(CNc2cccc3nc(C(F)(F)F)cn23)(c2ccc(F)cc2)C1` [Example 102, 3-(4-Fluorophenyl)-N-((1r,4r)-4-hydroxycyclohexyl)-3-(((2-(trifluoromethyl)imidazo[1,2-a]pyridin-5-yl)amino)methyl)azetidine-1-carboxamide], for which the IC50 on MRGPRX2 [1] and on MRGPRX2 [2] was 0.1 to 100 nM each time.

With `CNC(=O)N1CC(CNc2cc(Cl)cc3nc(C(F)(F)F)cn23)(c2ccc(F)cn2)C1` [Example 25, 3-(((7-Chloro-2-(trifluoromethyl)imidazo[1,2-a]pyridin-5-yl)amino)methyl)-3-(5-fluoropyridin-2-yl)-N-methylazetidine-1-carboxamide], the IC50 on MRGPRX2 [1] and on MRGPRX2 [2] was 0.1 to 100 nM each time.

Turning to `[2H]C([2H])([2H])c1cc(NCC2(c3ccc(F)cc3)CN(C(=O)NCC(F)(F)F)C2)n2nc(C(F)(F)F)cc2n1` [Example 109, 3-(4-Fluorophenyl)-3-(((5-(methyl-d3)-2-(trifluoromethyl)pyrazolo[1,5-a]pyrimidin-7-yl)amino)methyl)-N-(2,2,2-trifluoroethyl)azetidine-1-carboxamide], the IC50 at MRGPRX2 [1] and at MRGPRX2 [2] was 0.1 to 100 nM each time.

`Nc1nc(N2CCC(CNc3cc(C(F)F)nc4cc(C(F)(F)F)nn34)(c3ccccc3)CC2)n[nH]1` [Example 42, N-((1-(5-Amino-1H-1,2,4-triazol-3-yl)-4-phenylpiperidin-4-yl)methyl)-5-(difluoromethyl)-2-(trifluoromethyl)pyrazolo[1,5-a]pyrimidin-7-amine]: the half-maximal inhibitory concentration (IC50) at MRGPRX2 [1] and at MRGPRX2 [2] was 0.1 to 100 nM in each case.

As to `[2H]C([2H])([2H])NC(=O)N1CC(CNc2cccc3nc(C(F)(F)F)cn23)(c2ccc(F)cc2)C1` [Example 101, 3-(4-Fluorophenyl)-N-(methyl-d3)-3-(((2-(trifluoromethyl)imidazo[1,2-a]pyridin-5-yl)amino)methyl)azetidine-1-carboxamide], the half-inhibitory concentration (IC50) on MRGPRX2 [1] and at MRGPRX2 [2] was 0.1 to 100 nM throughout.

With `[2H]C([2H])([2H])c1cc(NCC2(c3ccc(F)cc3)CN(C(=O)NCC(F)F)C2)n2nc(C(F)(F)F)cc2n1` [Example 110, N-(2,2-Difluoroethyl)-3-(4-fluorophenyl)-3-(((5-(methyl-d3)-2-(trifluoromethyl)pyrazolo[1,5-a]pyrimidin-7-yl)amino)methyl)azetidine-1-carboxamide], the 50% inhibitory concentration (IC50) at MRGPRX2 [1] and on MRGPRX2 [2] was 0.1 to 100 nM each time.

Regarding `[2H]C([2H])([2H])C([2H])([2H])c1cc(NCC2(c3ccc(F)cc3)CN(C(=O)N[C@H]3CC[C@H](O)CC3)C2)n2nc(C(F)(F)F)cc2n1` [Example 112, 3-(((5-(Ethyl-d5)-2-(trifluoromethyl)pyrazolo[1,5-a]pyrimidin-7-yl)amino)methyl)-3-(4-fluorophenyl)-N-((1r,4r)-4-hydroxycyclohexyl)azetidine-1-carboxamide], the 50% inhibitory concentration (IC50) at MRGPRX2 [1] and at MRGPRX2 [2] was 0.1 to 100 nM each time.

For the molecule `O=C(N[C@H]1CC[C@H](O)CC1)N1CC(CNc2cc(C(F)(F)F)nc3cc(C(F)F)nn23)(c2ccc(F)cc2)C1` [Example 98, 3-(((2-(Difluoromethyl)-5-(trifluoromethyl)pyrazolo[1,5-a]pyrimidin-7-yl)amino)methyl)-3-(4-fluorophenyl)-N-((1r,4r)-4-hydroxycyclohexyl)azetidine-1-carboxamide], the half-maximal inhibitory concentration (IC50) at MRGPRX2 [1] and on MRGPRX2 [2] was 0.1 to 100 nM in each case.

For `O=C(NC[C@H]1C[C@H](O)C1)N1CC(CNc2cc(C(F)(F)F)nc3cc(C(F)(F)F)nn23)(c2ccc(F)cc2)C1` [Example 92, 3-(((2,5-Bis(trifluoromethyl)pyrazolo[1,5-a]pyrimidin-7-yl)amino)methyl)-3-(4-fluorophenyl)-N-(((1r,3r)-3-hydroxycyclobutyl)methyl)azetidine-1-carboxamide], the IC50 on MRGPRX2 [1] and on MRGPRX2 [2] was 0.1 to 100 nM in each case.

As for `N#CC12CC(NC(=O)N3CC(CNc4cc(C(F)(F)F)nc5cc(C(F)(F)F)nn45)(c4cc(F)cc(F)c4)C3)(C1)C2` [Example 65, 3-(((2,5-Bis(trifluoromethyl)pyrazolo[1,5-a]pyrimidin-7-yl)amino)methyl)-N-(3-cyanobicyclo[1.1.1]pentan-1-yl-3-3,5-difluorophenyl)azetidine-1-carboxamide], the IC50 on MRGPRX2 [1] and on MRGPRX2 [2] was 0.1 to 100 nM in each case.
